Several values for one entry are separate records, joined by “and”; a condition that tells them apart may be missing. Equal entries are not always repeated. Entries after “also recorded” stand apart in the source; their conditions may differ. Where two headings read alike, the source gives them in different places.
What was measured:
[1] = injected slowly into patients; cited from earlier work
[2] = test system: H661 (lung cancer (carcinoma)); test: cells; conditions: for Percentage of cells killed: H661; for CC50: Homo sapiens
Experimental: (§1) Cell Survival-MTT assay: The MTT (3-[4,5-Dimethylthiazol-2-yl]-2,5 diphenyl tertrazolim bromide) method of determining cell growth/cytotoxicity was used to determine cell survival. MTT is a tetrazolium salt that binds to b mitochondrial dehydrogenases of living cells. Binding converts yellow, water soluble MTT to an insoluble, purple formazan crystal. The crystals are solubilized with a 50% N,N-dimethylformamide (vol/vol), 20% SDS (wt/vol) solution (pH 4.7), and absorbance is determined at a wavelength of 570 nm. Unbound MTT is not detectable at this wavelength. The amount of bound MTT measured in the assay is proportional to the number of live cells present. (Niks and Otto 1990: “Towards an optimized MTT assay,” J. Immunol. Methods. 130, 149-151, Hussain et al. 1993; “A new approach for measurement of cytotoxicity using colorimetric assay,” J. Immunol. Methods. 160, 89-96).
(§2) Cells were harvested from cell cultures using the standard protocol (Trypsin/EDTA). The cells (1000 to 5000 cells in 50 μl of solution depending on cell type used) were then plated and incubated overnight at 37° C. before the addition of the agent or combination of agents.) After 2 days of incubation at 37° C., 10 μl of a 5 mg/ml solution of MTT was then added to all the wells and to a media control well. The plates were further incubated for 4 hours. A 100 μl of MTT solubilization buffer was added and the plates were incubated overnight at 37° C. The plates were then read on the ELISA plate reader with absorbance at 570 nm and a reference at 630 nm.
(§3) The effects of combinations were tested on three representative cancer cell lines: H661 (lung cancer (carcinoma)), MCF-7 (breast cancer (adenocarcinoma, pleural effusion)), and HT29 (colon cancer (adenocarcinoma, primary tumor)). Initial assays were carried out to determine the concentrations at which taxol, oxaliplatin, gemcitabine, or CPT 11 (also known as irinotecan) killed approximately 10% of the cells under investigation.

[3] = test system: HT29 (colon cancer (adenocarcinoma, primary tumor)); test: cells; conditions: for Percentage of cells killed: HT29; for CC50: Homo sapiens
Experimental: as §1, §2, §3

[4] = test system: MCF-7 (breast cancer (adenocarcinoma, pleural effusion)); test: cells; conditions: for Percentage of cells killed: MCF7; for CC50: Homo sapiens
Experimental: as §1, §2, §3

metastatic colon cancer = test: Phase I/IIa clinical trial colon cancer (Example 3); assay type: in vivo, human; conditions: interim results; I.V. pentamidine Day -2 and Day -1 before chemotherapy cycle
Source text: (FOLFOX regimens contain oxaliplatin, FOLFIRI regimens contain CPT 11 also known as Irinotecan; and IROX regimens contain Irinotecan and Oxaliplatin). Patients may also receive bevacizumab (Avastin) as part of chemotherapy or cetuximab (Erbitux) or panitumumab (Vectibix). Twenty-two patients are enrolled to date.
A further dose is being given on Day −1.
Both dose escalation and treatment with pentamidine alone are at the discretion of the treating physician.
Almost all patients will have previously failed on their current treatment or a combination thereof.

[5] = test system: metastatic colorectal cancer (mCRC); test: Phase I/II trial of pentamidine with chemotherapy in previously treated mCRC (Example 5); assay type: in vivo, human
[6] = test system: BxPC3 human pancreas xenograft; conditions: IP bi-weekly; Pentamidine 45 mg/kg, Gemcitabine 150 mg/kg
Experimental: BxPC3 cells were transplanted subcutaneously into the flank of each animal as a suspension of tumor cells (5×10^6 cells in 0.1 mL in PBS) on Jan. […] Transplantation was performed under a laminar airflow hood. […] Animals were labeled using the “ear punching” method so that for each group, all 10 animals could be distinguished. Each group of 10 mice was housed in 2 separate cages of 5 mice each; animal numbers 1 to 5 were housed in Cage A and animal numbers 6 to 10 were housed in Cage B.
Prior to every dosing injection, each animal was weighed and received their respective formulations. […] Mice in group 3 were treated intraperitoneally, bi-weekly (Tuesday-Friday) at 150 mg/kg with Gemcitabine for eleven weeks. […] The dose volume was 30 mL/kg for mice treated intraperitoneally.
At termination, when the tumor volume of one of the mice in the group reached 1500 mm^3, the whole group was sacrificed, and animals were anaesthetized using isoflurane and sacrificed by cervical dislocation.

[7] = repeated dosing; cited from earlier work
[8] = 13 evaluable pts, first 2 cycles
[9] = 13 evaluable pts, pentamidine before CTX
[10] = per patient, NCI CTCAEv3, pentamidine + CTX
[11] = preliminary analysis, pentamidine + CTX

N.N.[Cl][Pt][Cl] [Cis-platinum]
urinary excretion [1]: ≤ 75%

Nc1ccn([C@@H]2O[C@H](CO)[C@@H](O)C2(F)F)c(=O)n1 [Gemcitabine, gemcitabine]
Percentage of cells killed ([2]; Gemcitabine 0.26 μM alone): 25%
Percentage of cells killed ([3]; Gemcitabine 0.26 μM alone): 23%
Percentage of cells killed ([4]; Gemcitabine 0.26 μM alone): 23%

O=C1[O][Pt]2([NH][C@@H]3CCCC[C@H]3[NH]2)[O]C1=O [Oxaliplatin, oxaliplatin]
Percentage of cells killed ([2]; Oxaliplatin 0.25 μM alone): 14%
Percentage of cells killed ([3]; Oxaliplatin 0.25 μM alone): 10%
Percentage of cells killed ([4]; Oxaliplatin 0.25 μM alone): 8%

CCc1c2c(nc3ccc(OC(=O)N4CCC(N5CCCCC5)CC4)cc13)-c1cc3c(c(=O)n1C2)COC(=O)[C@]3(O)CC [CPT-11, camptothecin-11]
Percentage of cells killed ([2]; CPT-11 3.2 μM alone): 14%
Percentage of cells killed ([3]; CPT-11 3.2 μM alone): 6%
Percentage of cells killed ([4]; CPT-11 3.2 μM alone): 30%

N=C(N)c1ccc(OCCCCCOc2ccc(C(=N)N)cc2)cc1 [Pentamidine]
Percentage of cells killed ([2]; Pentamidine 0.15 mM alone): 50%
CC50 ([2]; NCI-H661, 48 h, read-out: LC50 of Pentamidine): 150 µM
CC50 ([2]; NCI-H661, read-out: LC50 of Pentamidine With CPT11 (0.25 μM)): 3 µM
CC50 ([2]; NCI-H661, read-out: LC50 of Pentamidine With Gemcitabine (0.26 μM)): 27 µM
CC50 ([2]; NCI-H661, read-out: LC50 of Pentamidine With Oxaliplatin (0.25 μM)): 3 µM
CC50 ([2]; NCI-H661, read-out: LC50 of Pentamidine with Taxol (2 μM)): 7 µM
Percentage of cells killed ([3]; Pentamidine 0.15 mM alone): 13%
CC50 ([3]; HT-29, 48 h, read-out: LC50 of Pentamidine): 270 µM
CC50 ([3]; HT-29, read-out: LC50 of Pentamidine With CPT11 (0.25 μM)): 12 µM
CC50 ([3]; HT-29, read-out: LC50 of Pentamidine With Gemcitabine (0.26 μM)): 30 µM
CC50 ([3]; HT-29, read-out: LC50 of Pentamidine With Oxaliplatin (0.25 μM)): 9 µM
CC50 ([3]; HT-29, read-out: LC50 of Pentamidine with Taxol (2 μM)): 130 µM
CC50 ([4]; MCF7, 48 h, read-out: LC50 of Pentamidine): 150 µM
CC50 ([4]; MCF7, read-out: LC50 of Pentamidine With CPT11 (0.25 μM)): 26 µM
CC50 ([4]; MCF7, read-out: LC50 of Pentamidine With Gemcitabine (0.26 μM)): 66 µM
CC50 ([4]; MCF7, read-out: LC50 of Pentamidine With Oxaliplatin (0.25 μM)): 9 µM
CC50 ([4]; MCF7, read-out: LC50 of Pentamidine with Taxol (2 μM)): 60 µM
Percentage of cells killed ([4]; Pentamidine 0.15 mM alone): 50%
overall survival compared with best current therapy (metastatic colon cancer): significantly enhances overall survival
DLT anorexia, share of pts [5, 8]: 8%
DLT hyperglycaemia, share of pts [5, 8]: 8%
Grade 3/4 AEs attributed to pentamidine: hyperglycaemia [5, 9]: 23%
Grade 3/4 AEs attributed to pentamidine: hyperlipasemia [5, 9]: 15%
activity in mCRC that has progressed on standard lines of treatment (in words) ([5]; Pentamidine & CTX): disease stabilizing activity
Reason for exiting the trial: Fatigue ([5]; initial 17 pts): 12%
Reason for exiting the trial: Fatigue, number of pts ([5]; initial 17 pts): 2
Reason for exiting the trial: PD ([5]; initial 17 pts): 35%
Reason for exiting the trial: PD, number of pts ([5]; initial 17 pts): 6
Reason for exiting the trial: Toxicity attributed to pentamidine ([5]; initial 17 pts): 18%
Reason for exiting the trial: Toxicity attributed to pentamidine, number of pts ([5]; initial 17 pts): 3
Response at patient exit from trial: CR ([5]; initial 17 pts): 0%
Response at patient exit from trial: CR, number of pts ([5]; initial 17 pts): 0
Response at patient exit from trial: PD ([5]; initial 17 pts): 47%
Response at patient exit from trial: PD, number of pts ([5]; initial 17 pts): 8
Response at patient exit from trial: PR ([5]; initial 17 pts): 0%
Response at patient exit from trial: PR, number of pts ([5]; initial 17 pts): 0
Response at patient exit from trial: SD ([5]; initial 17 pts): 35%
Response at patient exit from trial: SD, number of pts ([5]; initial 17 pts): 6
Best response during treatment: CR ([5]; initial 17 pts, RECIST): 0%
Best response during treatment: CR, number of pts ([5]; initial 17 pts, RECIST): 0
Best response during treatment: PD ([5]; initial 17 pts, RECIST): 24%
Best response during treatment: PD, number of pts ([5]; initial 17 pts, RECIST): 4
Best response during treatment: PR ([5]; initial 17 pts, RECIST): 6%
Best response during treatment: PR, number of pts ([5]; initial 17 pts, RECIST): 1
Best response during treatment: SD ([5]; initial 17 pts, RECIST): 59%
Best response during treatment: SD, number of pts ([5]; initial 17 pts, RECIST): 10
Attribution to Pentamidine: Anorexia ([5]; per patient): possibly
Attribution to Pentamidine: Diarrhea ([5]; per patient): No (2×) and possibly
Attribution to Pentamidine: Elevated Lipase ([5]; per patient): posssibly; also recorded: definitely
Attribution to Pentamidine: Fainting/syncope ([5]; per patient): No
Attribution to Pentamidine: General deterioration ([5]; per patient): No
Attribution to Pentamidine: Hand-foot reaction ([5]; per patient): No
Attribution to Pentamidine: Neutropenia ([5]; per patient): possibly
Attribution to Pentamidine: Urinary tract infection ([5]; per patient): No
AE Grade: Anorexia [5, 10]: 3
AE Grade: Diarrhea [5, 10]: 3
AE Grade: Elevated Lipase [5, 10]: 3
AE Grade: Fainting/syncope [5, 10]: 3
AE Grade: General deterioration [5, 10]: 4
AE Grade: Hand-foot reaction [5, 10]: 3
AE Grade: Neutropenia [5, 10]: 3
AE Grade: Urinary tract infection [5, 10]: 3
toxicity of pentamidine with CTX (in words) ([5]; preliminary analysis): consistent with known side effects of pentamidine; also recorded: manageable
Median OS time [5, 11]: has not yet been reached
median PFS time [5, 11]: 4.4 months
effect in the treatment of pancreatic cancer (tumor growth, FIG. 3) [6]: beneficial effect
time after final dose at which pentamidine was detected in tissue [7]: 25 days

Source: patent publication US20120128667A1 (ONCOZYME PHARMA INC., priority 2009, published 2012)
